Measured values published in patent US20100087534A1, “Use of a Photosensitizing Agent in the Treatment or Prevention of an Inflammation-Associated Disorder in the Gastrointestinal Tract of a Mammal” (priority 2005, published 2010).

Test system: CD4+ cells in the colonic mucosa
Assay: Anti-CD4 immunostaining of treated colonic mucosa
Assay type: in vivo, SCID mice
Details: low dose PDT, 3 days after PDT, compared to DC mice
Description: PDT was performed with a photosensitizing agent (δ-ALA) dose of 15 mg/kg, administered 3 hours before the illumination with the energy dose of 10 J/cm^2 per gastrointestinal tract tissue.
Mice were monitored by colonoscopy at day 3 and weeks 1, 2, 3 and 4 post PDT treatment. In addition to parameters investigated in example 1, CD4 immunostaining and apoptosis detection were performed.
For anti-CD4 immunostaining, frozen sections were extensively dried, fixed with 100% acetone at 4° C. and rehydrated in PBS. Sections were then blocked for 20 minutes with a PBS solution containing 0.1% BSA (Sigma-Aldrich Inc., St-Louis, USA) and 0.5% NMS. CD4 detection was performed by incubation of the sections for 1 hour with a cell culture supernatant originating from an hybridoma secreting rat anti-mouse CD4 (clone H129.19). After washing with PBS, an Alexa Fluor 488-conjugated goat anti-rat IgG at a final concentration of 5 ng/ml in PBS 0.1% BSA, 1% NMS was used as secondary antibody and incubated for 45 minutes before two last PBS washings. All incubations were done at room temperature unless specified otherwise.

For `NCC(=O)CCC(=O)O` [δ-ALA, 5-aminolevulinic acid], the “number of CD4+ cells in the treated colonic mucosa” value was “obvious diminution in the number of CD4^+ cells”.
